Experimental findings from patent US20070148051A1, “Chemical volatilization device” (Dainihon Jochugiku Co., Ltd., priority 2005, published 2007) are described below.

The test system of one assay is mosquitoes. As to the kind of experiment: Experiment Example 1: chemical volatilization device activated, mosquito control. It counts as in vivo. The note with it: 40 mg Compound C dissolved in kerosene retained in chemical retainer, 1200 rpm, over about 120 hours. The text has this:
Two-dimensional mesh-like chemical-retaining fibers 2 were woven on both the upper and lower sides using twisted polyester fibers, and supportive connecting chemical-retaining fibers 3 (upper and lower widths: 3 mm), comprised of polyester fibers, were arranged between both sides based on a diagonal structure according to the constitution of the aforementioned (6) as shown in FIG. 6 to produce a disc-like chemical retainer 1 having an overall thickness in the vertical direction of 4.0 mm and an outer diameter of 4.0 cm.
The chemical retainer 1 was housed in a protective case 4 made of polycarbonate (outer diameter: 5.0 cm, thickness: 8 mm), and the protective case 4 employed a roughly circular cross-section for circumferential retaining frames 41.
In this type of chemical retainer 1, a chemical solution, in which 40 mg of Compound C (4-methoxymethyl-2,3,5,6-tetrafluorobenzyl-2,2-dimethyl-3-(1-propenyl)cyclopropane carboxylate) were dissolved in kerosene, was retained in said chemical retainer 1, and after housing in the protective case 4, was activated for 120 hours at a rotating speed of 1200 rpm.

Assay [1] has as its system harmful insects such as mosquitoes and midges. Kind of assay: Experiment Example 2: device suspended in a doghouse, insecticidal effects. It counts as in vivo. The settings on record: 70 mg Compound A retained, 1400 rpm, 8 hours per day for about 30 days. The text has this:
Two-dimensional mesh-like chemical-retaining fibers 2 were woven using twisted polyester fibers, and supportive connecting chemical-retaining fibers 3 (upper and lower widths: 2.5 mm), comprised of nylon fibers, were arranged in a state in which a columnar structure and a diagonal structure were overlapped based on the constitution of the aforementioned (8) shown in FIG. 8 to produce a disc-like chemical retainer 1 having an overall thickness in the vertical direction of 4.2 mm and an outer diameter of 4.5 cm.
70 mg of Compound A (2,3,5,6-tetrafluorobenzyl-2,2-dimethyl-3-(2,2-dichlorovinyl)cyclopropane carboxylate) was retained instead of the chemical used in Experiment Example 1 and activated for 240 hours.
This chemical retainer 1 was housed in the protective case 4 of Experiment Example 1, activated for 8 hours per day by suspending in a doghouse at a rotating speed of 1400 rpm, and said activation was continued for about 30 days.

Regarding `CC=CC1C(C(=O)OCc2c(F)c(F)c(COC)c(F)c2F)C1(C)C` (centres unmarked) [Compound C, 4-methoxymethyl-2,3,5,6-tetrafluorobenzyl-2,2-dimethyl-3-(1-propenyl)cyclopropane carboxylate], in the assay with mosquitoes, the “control of mosquitoes during activation” value is “effectively controlled”.
Regarding `CC1(C)C(C=C(Cl)Cl)C1C(=O)OCc1c(F)c(F)cc(F)c1F` (centres unmarked) [Compound A, 2,3,5,6-tetrafluorobenzyl-2,2-dimethyl-3-(2,2-dichlorovinyl) cyclopropane carboxylate], the “insecticidal effects against harmful insects during continuous activation” value in assay [1] was “stable insecticidal effects”.
